# Test system: 777334-354-R2-J4-PDC tumor spheroids with HUVEC/MSC, viability
# Assay: Anticancer human tumor 777334-354-R2-J4-PDC patient-derived pancreatic adenocarcinoma cell line growth inhibition [GQUAD]
# Settings: for IC50: curve of first compound; for viability, T/C: stronger effect = lower value
# In short: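 Viability of tumor cells grown as complex spheroids with endothelial and stromal cells, exposed to drug combinations. Top concentration at or near clinical Cmax (else 10 microM), diluted in half-log increments.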
# [1] = second compound 0.0316 µM, first compound 0.0316 µM
# [2] = second compound 0.0316 µM, first compound 0.1 µM
# [3] = second compound 0.0316 µM, first compound 0.316 µM
# [4] = second compound 0.0316 µM, first compound 1 µM
# [5] = second compound 0.0316 µM, first compound 3.16 µM
# [6] = second compound 0.0316 µM, first compound 10 µM
# [7] = second compound 0.1 µM, first compound 0.0316 µM
# [8] = second compound 0.1 µM, first compound 0.1 µM
# [9] = second compound 0.1 µM, first compound 0.316 µM
# [10] = second compound 0.1 µM, first compound 1 µM
# [11] = second compound 0.1 µM, first compound 3.16 µM
# [12] = second compound 0.1 µM, first compound 10 µM
# [13] = second compound 0.316 µM, first compound 0.0316 µM
# [14] = second compound 0.316 µM, first compound 0.1 µM
# [15] = second compound 0.316 µM, first compound 0.316 µM
# [16] = second compound 0.316 µM, first compound 1 µM
# [17] = second compound 0.316 µM, first compound 3.16 µM
# [18] = second compound 0.316 µM, first compound 10 µM
# [19] = second compound 1 µM, first compound 0.0316 µM
# [20] = second compound 1 µM, first compound 0.1 µM
# [21] = second compound 1 µM, first compound 0.316 µM
# [22] = second compound 1 µM, first compound 1 µM
# [23] = second compound 1 µM, first compound 3.16 µM
# [24] = second compound 1 µM, first compound 10 µM
# [25] = second compound 3.16 µM, first compound 0.0316 µM
# [26] = second compound 3.16 µM, first compound 0.1 µM
# [27] = second compound 3.16 µM, first compound 0.316 µM
# [28] = second compound 3.16 µM, first compound 1 µM
# [29] = second compound 3.16 µM, first compound 3.16 µM
# [30] = second compound 3.16 µM, first compound 10 µM
# [31] = second compound 10 µM, first compound 0.0316 µM
# [32] = second compound 10 µM, first compound 0.1 µM
# [33] = second compound 10 µM, first compound 0.316 µM
# [34] = second compound 10 µM, first compound 1 µM
# [35] = second compound 10 µM, first compound 3.16 µM
# [36] = second compound 10 µM, first compound 10 µM
# 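Also: spheroids exposed to compounds for 7 days before readout.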
structure (smiles),measurement,setting,value
CCCS(=O)(=O)Nc1ccc(F)c(C(=O)c2c[nH]c3ncc(-c4ccc(Cl)cc4)cc23)c1F + Cc1[nH]c2ccc(F)cc2c1-c1nc2c3cccnc3c3ncccc3c2[nH]1,IC50,second compound 0.0316 µM,7750 nM
same,IC50,second compound 0.1 µM,8350 nM
same,IC50,second compound 0.316 µM,7780 nM
same,IC50,second compound 1 µM,7020 nM
same,IC50,second compound 3.16 µM,< 31.6 nM
same,IC50,second compound 10 µM,< 31.6 nM
same,"viability, T/C",[1],108%
same,"viability, T/C",[2],108%
same,"viability, T/C",[3],114%
same,"viability, T/C",[4],111%
same,"viability, T/C",[5],124%
same,"viability, T/C",[6],32%
same,"viability, T/C",[7],111%
same,"viability, T/C",[8],104%
same,"viability, T/C",[9],109%
same,"viability, T/C",[10],122%
same,"viability, T/C",[11],130%
same,"viability, T/C",[12],38%
same,"viability, T/C",[13],94.7%
same,"viability, T/C",[14],102%
same,"viability, T/C",[15],96.2%
same,"viability, T/C",[16],126%
same,"viability, T/C",[17],117%
same,"viability, T/C",[18],33.9%
same,"viability, T/C",[19],79.8%
same,"viability, T/C",[20],99.4%
same,"viability, T/C",[21],92.4%
same,"viability, T/C",[22],109%
same,"viability, T/C",[23],111%
same,"viability, T/C",[24],28.5%
same,"viability, T/C",[25],50.2%
same,"viability, T/C",[26],46.1%
same,"viability, T/C",[27],33.2%
same,"viability, T/C",[28],30.6%
same,"viability, T/C",[29],38.5%
same,"viability, T/C",[30],13.8%
same,"viability, T/C",[31],44.3%
same,"viability, T/C",[32],31.9%
same,"viability, T/C",[33],43.8%
same,"viability, T/C",[34],28.8%
same,"viability, T/C",[35],28.4%
same,"viability, T/C",[36],15.8%
Cc1[nH]c2ccccc2c1CCNCc1ccc(/C=C/C(=O)NO)cc1 + Cc1[nH]c2ccc(F)cc2c1-c1nc2c3cccnc3c3ncccc3c2[nH]1,IC50,second compound 0.0316 µM,189 nM
same,IC50,second compound 0.1 µM,215 nM
same,IC50,second compound 0.316 µM,207 nM
same,IC50,second compound 1 µM,176 nM
same,IC50,second compound 3.16 µM,< 0.999 nM
same,IC50,second compound 10 µM,< 0.999 nM
same,"viability, T/C","second compound 0.0316 µM, first compound 0.000999 µM",114%
same,"viability, T/C","second compound 0.0316 µM, first compound 0.00316 µM",91.3%
same,"viability, T/C","second compound 0.0316 µM, first compound 0.00999 µM",103%
same,"viability, T/C",[1],78.2%
same,"viability, T/C","second compound 0.0316 µM, first compound 0.0999 µM",74.5%
same,"viability, T/C",[3],33.8%
same,"viability, T/C","second compound 0.1 µM, first compound 0.000999 µM",103%
same,"viability, T/C","second compound 0.1 µM, first compound 0.00316 µM",94%
same,"viability, T/C","second compound 0.1 µM, first compound 0.00999 µM",102%
same,"viability, T/C",[7],90.6%
same,"viability, T/C","second compound 0.1 µM, first compound 0.0999 µM",73.1%
same,"viability, T/C",[9],38.5%
same,"viability, T/C","second compound 0.316 µM, first compound 0.000999 µM",90.2%
same,"viability, T/C","second compound 0.316 µM, first compound 0.00316 µM",92.2%
same,"viability, T/C","second compound 0.316 µM, first compound 0.00999 µM",109%
same,"viability, T/C",[13],92.7%
same,"viability, T/C","second compound 0.316 µM, first compound 0.0999 µM",79%
same,"viability, T/C",[15],33.1%
same,"viability, T/C","second compound 1 µM, first compound 0.000999 µM",97.9%
same,"viability, T/C","second compound 1 µM, first compound 0.00316 µM",80.3%
same,"viability, T/C","second compound 1 µM, first compound 0.00999 µM",78.4%
same,"viability, T/C",[19],91.2%
same,"viability, T/C","second compound 1 µM, first compound 0.0999 µM",70.4%
same,"viability, T/C",[21],29.2%
same,"viability, T/C","second compound 3.16 µM, first compound 0.000999 µM",46%
same,"viability, T/C","second compound 3.16 µM, first compound 0.00316 µM",37.7%
same,"viability, T/C","second compound 3.16 µM, first compound 0.00999 µM",41%
same,"viability, T/C",[25],49.3%
same,"viability, T/C","second compound 3.16 µM, first compound 0.0999 µM",52.5%
same,"viability, T/C",[27],38.7%
same,"viability, T/C","second compound 10 µM, first compound 0.000999 µM",46.3%
same,"viability, T/C","second compound 10 µM, first compound 0.00316 µM",24.8%
same,"viability, T/C","second compound 10 µM, first compound 0.00999 µM",38.9%
same,"viability, T/C",[31],35%
same,"viability, T/C","second compound 10 µM, first compound 0.0999 µM",41.6%
same,"viability, T/C",[33],32.1%
O=C(NO)c1cnc(N2CCN(S(=O)(=O)c3ccc4ccccc4c3)CC2)nc1 + Cc1[nH]c2ccc(F)cc2c1-c1nc2c3cccnc3c3ncccc3c2[nH]1,IC50,second compound 0.0316 µM,1440 nM
same,IC50,second compound 0.1 µM,1390 nM
same,IC50,second compound 0.316 µM,1520 nM
same,IC50,second compound 1 µM,1580 nM
same,IC50,second compound 3.16 µM,1050 nM
same,IC50,second compound 10 µM,< 31.6 nM
same,"viability, T/C",[1],104%
same,"viability, T/C",[2],91.6%
same,"viability, T/C",[3],87.3%
same,"viability, T/C",[4],68.3%
same,"viability, T/C",[5],12.7%
same,"viability, T/C",[6],2.55%
same,"viability, T/C",[7],92.7%
same,"viability, T/C",[8],101%
same,"viability, T/C",[9],91.6%
same,"viability, T/C",[10],64.6%
same,"viability, T/C",[11],13.6%
same,"viability, T/C",[12],0.23%
same,"viability, T/C",[13],99.2%
same,"viability, T/C",[14],92.9%
same,"viability, T/C",[15],86.2%
same,"viability, T/C",[16],67.1%
same,"viability, T/C",[17],22%
same,"viability, T/C",[18],2.6%
same,"viability, T/C",[19],88.4%
same,"viability, T/C",[20],84.6%
same,"viability, T/C",[21],71.8%
same,"viability, T/C",[22],70.1%
same,"viability, T/C",[23],22.5%
same,"viability, T/C",[24],2.98%
same,"viability, T/C",[25],55.7%
same,"viability, T/C",[26],41.7%
same,"viability, T/C",[27],67%
same,"viability, T/C",[28],50.5%
same,"viability, T/C",[29],17.5%
same,"viability, T/C",[30],0.99%
same,"viability, T/C",[31],38.4%
same,"viability, T/C",[32],38.7%
same,"viability, T/C",[33],52.4%
same,"viability, T/C",[34],41.9%
same,"viability, T/C",[35],19.7%
same,"viability, T/C",[36],2.58%
O=c1[nH]cc(F)c(=O)[nH]1 + Cc1[nH]c2ccc(F)cc2c1-c1nc2c3cccnc3c3ncccc3c2[nH]1,IC50,second compound 0.0316 µM,> 10000 nM
same,IC50,second compound 0.1 µM,> 10000 nM
same,IC50,second compound 0.316 µM,> 10000 nM
same,IC50,second compound 1 µM,> 10000 nM
same,IC50,second compound 3.16 µM,< 31.6 nM
same,IC50,second compound 10 µM,< 31.6 nM
same,"viability, T/C",[1],95.5%
same,"viability, T/C",[2],93.3%
same,"viability, T/C",[3],105%
same,"viability, T/C",[4],82.5%
same,"viability, T/C",[5],71.3%
same,"viability, T/C",[6],61.5%
same,"viability, T/C",[7],113%
same,"viability, T/C",[8],100%
same,"viability, T/C",[9],103%
same,"viability, T/C",[10],72%
same,"viability, T/C",[11],80.8%
same,"viability, T/C",[12],61.7%
same,"viability, T/C",[13],89.1%
same,"viability, T/C",[14],103%
same,"viability, T/C",[15],86.1%
same,"viability, T/C",[16],76.8%
same,"viability, T/C",[17],79.4%
same,"viability, T/C",[18],67.5%
same,"viability, T/C",[19],74.7%
same,"viability, T/C",[20],89.5%
same,"viability, T/C",[21],72.9%
same,"viability, T/C",[22],61.1%
same,"viability, T/C",[23],68.7%
same,"viability, T/C",[24],53.3%
same,"viability, T/C",[25],44.6%
same,"viability, T/C",[26],38.4%
same,"viability, T/C",[27],31.2%
same,"viability, T/C",[28],28.8%
same,"viability, T/C",[29],27.7%
same,"viability, T/C",[30],25%
same,"viability, T/C",[31],29.6%
same,"viability, T/C",[32],29.1%
same,"viability, T/C",[33],24.5%
same,"viability, T/C",[34],17.4%
same,"viability, T/C",[35],16.4%
same,"viability, T/C",[36],18.5%
